From patent US5728830A, “Farnesyltransferase inhibitor” (Kyowa Hakko Kogyo Co., Ltd., priority 1993, dated 1998)
≈ marks a conversion by molar mass, not a printed value. Like-named read-outs stand apart in the source and are kept apart here.

Assays:
[1] = molecular target: T1, farnesyltransferase (FTase) (Bos taurus, UniProt P29702+P49355); assay: Farnesyltransferase Inhibitory Activity ([3H]SPA FTase assay, farnesylation of C-terminal peptide of lamin B); format: biochemical; settings: bovine brain crude enzyme
T1 construct: An extract of minced bovine brain was subjected to column chromatography on DEAE-Sephacel (Pharmacia); from tissue; host or cells: bovine brain
Description: Farnesyltransferase Inhibitory Activity
An extract of minced bovine brain was subjected to column chromatography on DEAE-Sephacel (Pharmacia). The active fraction was concentrated by ultrafiltration and dialyzed against a mixture of 20 mM Tris-HCl (pH 8.0), 50 mM NaCl, […], 1 mM dithiothreitol (DTT), and 0.2 mM phenylmethylsulfonyl fluoride (PMSF). The resulting dialysate was used as a crude enzyme liquid of farnesyltransferase (FTase). The measurement of activity was carried out by means of an FTase [^3 H]SPA enzyme assay kit (Amersham) using the enzyme obtained by the above method.

[2] = test system: Candida albicans ATCC 10231; assay: Antibacterial Activity, agar dilution method, Candida albicans; format: cell-based
Description: (§1) The antibacterial activity was measured by the agar dilution method using a medium (pH 7) prepared by dissolving 3 g of Bacto-tryptone (Difco), 3 g of meat extract, 1 g of yeast extract, 1 g of glucose, and 16 g of agar in 1 liter of water. The antibacterial activity of Compounds I are expressed in terms of minimum growth inhibitory concentration (MIC).
CA; Candida albicans ATCC 10231

[3] = test system: Enterococcus faecium ATCC 10541; assay: Antibacterial Activity, agar dilution method, Enterococcus faecium; format: cell-based
Description: as §1
EF; Enterococcus faecium ATCC 10541

[4] = test system: Bacillus subtilis No. 10707; assay: Antibacterial Activity, agar dilution method, Bacillus subtilis; format: cell-based
Description: as §1
BS; Bacillus subtilis No. 10707

[5] = test system: BALB 3T3/H-ras cells; assay: Anticell Activity (growth inhibition of BALB 3T3 cells transformed by the oncogene H-ras, Giemsa staining); format: cell-based; settings: Mus musculus, 72 hours, read-out: IC50 Anti-BALB 3T3/H-ras Cell Activity
Description: The anticell activity was measured using BALB 3T3 cells transformed by the oncogene H-ras (hereinafter referred to as BALB 3T3/H-ras cells).
BALB 3T3/H-ras cells were suspended in a DME medium (Nissui) containing 10% bovine fetal serum (hereinafter referred to as medium A) to a cell concentration of 3.0×10^4 cells/ml. Each well of a 96-well microtiter plate was inoculated with 0.1 ml of the cell suspension, and the system was cultured in a CO2 gas incubator at 37° C. for 20 hours. To each well was added 0.1 ml of a sample (test compound) diluted appropriately with medium A, followed by culturing in the CO2 gas incubator at 37° C. for 72 hours. The culture supernatant was removed, and the residue was washed once with physiological saline and treated with 0.1 ml of methanol for 10 minutes to immobilize the cells. The cells were stained with 0.1 ml of a Giemsa staining solution [Giemsa staining stock solution Merck Art9204 (Merck & Co., Inc.):physiological saline=1:10] for 5 minutes. The staining solution was removed, and the residue was washed once with 0.2 ml of water. The pigment was extracted with 0.2 ml of 0.1N hydrochloric acid, and the absorbance at 620 nm was measured with a microplate reader.

[6] = test system: isogenic tumor in K-BALB mice; assay: Antitumor Activity on Isogenic Tumor System in K-BALB Mice; format: in vivo; settings: intraperitoneal, 5 consecutive days from 7th day after transplantation, BALB/c mouse
Description: Antitumor Activity on Isogenic Tumor System in K-BALB Mice
The antitumor activity on an isogenic tumor system in K-BALB mice was measured according to the method described in Proc. Natl. Acad. Sci., 90, 2281 (1993). That is, an isogenic tumor in K-BALB mice was resected from a donor mouse, and a 2×2×2 (8) mm^3 tumor piece was transplanted to the subcutaneous site of the abdomen of a BALB/c mouse by means of a trocar. After the graft survival was confirmed on the 7th day from the transplantation, a test compound was intraperitoneally administered for 5 consecutive days from the same day. The longer diameter and shorter diameter of the tumor were measured with a sliding gauge, and the tumor volume was calculated according to the formula; (longer diameter)×(shorter diameter)^2 /2 [Cancer Chemother. Rep., Part III, 3, 1 (1972)]. The antitumor effect was evaluated in terms of T/C, the ratio of the tumor volume of a test compound-treated group (T) to that of an untreated group (C).

[7] = Candida albicans, ATCC10231, pH 7, read-out: MIC CA
[8] = Enterococcus faecium, ATCC10541, pH 7, read-out: MIC EF
[9] = Bacillus subtilis, NO.10707, pH 7, read-out: MIC BS
[10] = ATCC10231, Candida albicans ATCC 10231, agar dilution, pH 7, read-out: MIC CA
[11] = Bacillus subtilis No. 10707, agar dilution, pH 7, read-out: MIC BS

| SMILES | IC50 [1] | MIC [4, 9] | IC50 [5] | further results |
| --- | --- | --- | --- | --- |
| O=C1C2SSC(C(=O)N2Cc2ccccc2)N1Cc1ccccc1 [Compound I-19] | 7 µM | 83 µg/mL (≈ 233 µM) |  | MIC [2, 7]: 2.6 µg/mL (≈ 7.29 µM); MIC [3, 8]: 83 µg/mL (≈ 233 µM) |
| CN1C(=O)C2(CO)SSC1(CO)C(=O)N2c1ccccc1 (centres unmarked) [Compound I-21] | 3 µM | 21 µg/mL (≈ 64.3 µM) | 0.2 µM | MIC [3, 8]: 0.33 µg/mL (≈ 1.01 µM) |
| CN1C(=O)C2SSC1(CO)C(=O)N2c1ccccc1 (centres unmarked) [Compound I-13] | 5 µM | 0.041 µg/mL (≈ 0.138 µM) | 0.1 µM | MIC [2, 7]: 42 µg/mL (≈ 142 µM); MIC [3, 8]: 0.16 µg/mL (≈ 0.54 µM); T/C (ratio of tumor volume, treated to untreated) ([6]; 0.75 mg/kg): 0.44 |
| CC(=O)SC1C(=O)N(c2ccccc2)C(SC(C)=O)C(=O)N1c1ccccc1 (centres unmarked) [Compound I-4] | 12 µM |  | 0.9 µM | T/C (ratio of tumor volume, treated to untreated) ([6]; 5.0 mg/kg): 0.41 |
| O=C(Oc1ccccc1)SC1C(=O)N(c2ccccc2)C(SC(=O)Oc2ccccc2)C(=O)N1c1ccccc1 (centres unmarked) [Compound I-10] | 25 µM |  | 1 µM | MIC [2, 10]: 42 µg/mL (≈ 73.6 µM) |
| CC(=O)SC1C(=O)N(c2ccccc2)C(SC(C)=O)C(=O)N1C (centres unmarked) [Compound I-1] | 5 µM |  | 0.2 µM |  |
| COc1ccc(Br)cc1N1C(=O)C(SC(C)=O)N(C)C(=O)C1SC(C)=O (centres unmarked) [Compound I-3] | 9 µM |  | 1.5 µM |  |
| CN1C(=O)C2(COCc3ccccc3)SSC1(COCc1ccccc1)C(=O)N2c1ccccc1 (centres unmarked) [Compound I-12] | 3 µM | 42 µg/mL (≈ 82.9 µM) | 1 µM | MIC [2, 7]: 42 µg/mL (≈ 82.9 µM) |
| CN1C(=O)C2SSC1C(=O)N2c1ccccc1 (centres unmarked) [Compound I-7] | 60 µM |  | 0.2 µM |  |
| O=C(SC1C(=O)N(c2ccccc2)C(SC(=O)c2ccccc2)C(=O)N1c1ccccc1)c1ccccc1 (centres unmarked) [Compound I-9] | 9 µM |  | 3 µM |  |
| COCN1C(=O)C(SC(=O)Oc2ccccc2)N(COC)C(=O)C1SC(=O)Oc1ccccc1 (centres unmarked) [Compound I-17] | 5 µM |  | 0.3 µM | MIC [4, 11]: 42 µg/mL (≈ 82.9 µM) |
| CN1C(=O)C2SSC1(COCc1ccccc1)C(=O)N2c1ccccc1 (centres unmarked) [Compound I-11] | 3 µM | 7.3 µg/mL (≈ 18.9 µM) | 3 µM | MIC [2, 7]: 0.46 µg/mL (≈ 1.19 µM) |
| COCN1C(=O)C(SC(C)=O)N(COC)C(=O)C1SC(C)=O (centres unmarked) [Compound I-5] | 8 µM |  | 0.4 µM |  |
| CC(=O)SC1C(=O)N(Cc2ccccc2)C(SC(C)=O)C(=O)N1Cc1ccccc1 (centres unmarked) [Compound I-6] | 7 µM |  | 4 µM | MIC [2, 10]: 10 µg/mL (≈ 22.6 µM); MIC ([3]; ATCC10541, Enterococcus faecium ATCC 10541, agar dilution, pH 7, read-out: MIC EF): 42 µg/mL (≈ 94.9 µM); MIC [4, 11]: 21 µg/mL (≈ 47.5 µM) |
| CCOC(=O)SC1C(=O)N(c2ccccc2)C(SC(=O)OCC)C(=O)N1c1ccccc1 (centres unmarked) [Compound I-20] | 45 µM |  |  |  |
| COc1ccccc1N1C(=O)C2(CO)SSC1C(=O)N2C (centres unmarked) [Compound I-14] | 6 µM | 7.3 µg/mL (≈ 22.4 µM) | 0.3 µM |  |
| CC(=O)OCC1(SC(C)=O)C(=O)N(c2ccccc2)C(SC(C)=O)C(=O)N1C (centres unmarked) [Compound I-16] | 20 µM | 5.2 µg/mL (≈ 12.2 µM) | 1.7 µM | MIC [3, 8]: 42 µg/mL (≈ 98.9 µM) |
| COc1ccccc1N1C(=O)C(SC(C)=O)N(C)C(=O)C1SC(C)=O (centres unmarked) [Compound I-2] | 9 µM |  | 0.5 µM |  |
| O=C1C2SSC(C(=O)N2c2ccccc2)N1c1ccccc1 [Compound I-8] | 10 µM |  | 0.7 µM |  |
| COc1ccccc1N1C(=O)C2(CO)SSC1(CO)C(=O)N2C (centres unmarked) [Compound I-15] | 7 µM | 0.33 µg/mL (≈ 0.926 µM) | 0.3 µM | MIC [3, 8]: 1.3 µg/mL (≈ 3.65 µM) |
